# Measurements taken from patent US20230263817A1, “HIGH DOSE NICOTINAMIDE ADENINE DINUCLEOTIDE (NAD) PRECURSOR REGIMENS FOR REDUCTION OF INFLAMMATION IN HUMAN PATIENTS WITH PREEXISTING INFLAMMATION” (University of Washington, priority 2021, published 2023).
# Tests used:
# [1] = tested on: PBMCs of heart failure patients; test: Seahorse OCR of HF PBMCs after 4-hour in vitro NR treatment; format: cell-based, human; conditions: HF PBMC, 4-hour 1 mM NR vs vehicle
# Experimental: PBMC and Monocyte isolation. 30-60 ml of fasting blood was collected into EDTA-containing Vacutainers (BD Mfr #364606). Blood then was diluted (1:1) with RPMI medium (Corning; Cat #17-105-CV) and applied to Histopaque gradient medium (Sigma-Aldrich; Cat #10771) using SepMate-50 (STEMCELL Technologies), and centrifuged at 1200 g for 10 minutes. Top layer contained the enriched peripheral blood mononuclear cells (PBMCs) which were collected and followed by centrifugation at 300 g for 10 minutes. The pellet was resuspended with ACK lysis buffer (Gibco; Cat. A1049201) and incubated at room temperature for 5 minutes to remove residual red blood cells. Next, the enriched PBMCs were washed twice with RPMI medium. All PBMC samples were subjected to the baseline Seahorse Mito Stress Test. When available, the remaining cells were used for cytokine mRNA quantitative PCR and in vitro assays. For monocyte isolation, a magnetic bead-based negative-selection monocyte isolation kit (Miltenyi Biotec, 130-096-537) was used per the manufacturer's instructions. […]
# Seahorse Mito Stress Test. Oxygen consumption rate (OCR) of freshly isolated PBMCs was assessed using a Seahorse XFe24 analyzer (Agilent Technologies). […]
# [2] = tested on: PBMC of Stage D HF subjects; test: PBMC basal and maximal OCR of Stage D HF patients pre- and post-oral NR; format: in vivo, human; conditions: oral NR 5-9 days, post vs pre
# Experimental: For experiments associated with the oral NR administration (FIGS. 12C-12F), 5 hospitalized Stage D HF patients undergoing advanced heart failure therapy evaluations were put on escalating doses of NR (250 mg twice a day for Day 1, 500 mg twice a day for Day 2, and 1000 mg twice a day from Day 3 on) for 5-9 days. Fasting blood samples were obtained for PBMC isolation at baseline and post-NR administration. Subject 5 was withdrawn due to a change in clinical course deemed to be independent from NR administration. PBMC and Monocyte isolation. 30-60 ml of fasting blood was collected into EDTA-containing Vacutainers (BD Mfr #364606). Blood then was diluted (1:1) with RPMI medium (Corning; Cat #17-105-CV) and applied to Histopaque gradient medium (Sigma-Aldrich; Cat #10771) using SepMate-50 (STEMCELL Technologies), and centrifuged at 1200 g for 10 minutes. Top layer contained the enriched peripheral blood mononuclear cells (PBMCs) which were collected and followed by centrifugation at 300 g for 10 minutes. The pellet was resuspended with ACK lysis buffer (Gibco; Cat. A1049201) and incubated at room temperature for 5 minutes to remove residual red blood cells. […] When available, the remaining cells were used for cytokine mRNA quantitative PCR and in vitro assays. […] Oxygen consumption rate (OCR) of freshly isolated PBMCs was assessed using a Seahorse XFe24 analyzer (Agilent Technologies). […]
# [3] = Adverse effects of oral NR in Stage D HF patients; format: in vivo, human; conditions: oral NR 5-9 days, 5 participants
# Experimental: For experiments associated with the oral NR administration (FIGS. 12C-12F), 5 hospitalized Stage D HF patients undergoing advanced heart failure therapy evaluations were put on escalating doses of NR (250 mg twice a day for Day 1, 500 mg twice a day for Day 2, and 1000 mg twice a day from Day 3 on) for 5-9 days. Fasting blood samples were obtained for PBMC isolation at baseline and post-NR administration. Subject 5 was withdrawn due to a change in clinical course deemed to be independent from NR administration.
compound,measurement,setting,value
"NC(=O)c1ccc[n+]([C@@H]2O[C@H](CO)[C@@H](O)[C@H]2O)c1 [NR, nicotinamide riboside]",basal OCR,[1],increased
same,maximal OCR,[1],increased
same,PBMCs basal OCR,[2],consistent enhancement
same,PBMCs maximal OCR,[2],consistent enhancement
same,adverse effect associated with NR,[3],No adverse effect
